Measurements taken from patent publication US11780821B2, “Inhibitors of fibroblast activation protein” (Praxis Biotech LLC, priority 2017, dated 2023).
Read-outs that look alike come from different tables or passages of the source.

Tests used:
Type in all cases: biochemical
[1] = molecular target: T1, recombinant mouse FAPα (rmFAPα) (Mus musculus, UniProt P97321); assay: FAPα enzymatic exopeptidase (dipeptidase) activity assay; settings: 1 μM test compound; Z-Gly-Pro-AMC substrate; read-out: rmFAPα (% exo inh @ 1 μM)
T1 construct: purchased R&S system (so in the source)
T1 sequence (P97321 1-761): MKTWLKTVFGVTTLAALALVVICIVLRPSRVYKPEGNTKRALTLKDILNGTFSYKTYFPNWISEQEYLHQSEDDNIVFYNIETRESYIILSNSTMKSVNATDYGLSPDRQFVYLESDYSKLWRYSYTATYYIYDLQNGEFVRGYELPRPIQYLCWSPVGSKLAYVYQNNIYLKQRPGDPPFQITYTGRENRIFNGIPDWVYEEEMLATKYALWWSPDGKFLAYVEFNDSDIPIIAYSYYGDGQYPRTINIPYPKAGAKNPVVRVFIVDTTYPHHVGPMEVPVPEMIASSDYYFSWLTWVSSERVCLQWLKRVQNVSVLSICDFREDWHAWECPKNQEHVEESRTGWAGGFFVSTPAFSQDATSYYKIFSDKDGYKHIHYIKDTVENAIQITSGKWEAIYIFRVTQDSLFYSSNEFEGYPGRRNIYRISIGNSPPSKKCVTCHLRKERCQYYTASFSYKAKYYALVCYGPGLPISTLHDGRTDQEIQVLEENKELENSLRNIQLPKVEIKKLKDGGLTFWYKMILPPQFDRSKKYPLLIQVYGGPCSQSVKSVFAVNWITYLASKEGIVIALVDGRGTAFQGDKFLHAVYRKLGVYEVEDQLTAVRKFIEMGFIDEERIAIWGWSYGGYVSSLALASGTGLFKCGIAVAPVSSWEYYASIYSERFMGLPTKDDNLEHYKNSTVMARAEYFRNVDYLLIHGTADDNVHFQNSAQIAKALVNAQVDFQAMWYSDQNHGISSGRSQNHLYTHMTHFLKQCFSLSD
Protocol: FAPα enzymatic exopeptidase (dipeptidase) activity assay. […] 7-Amino-4-Methylcoumarin (AMC) release was detected by measuring fluorescence at Ex/Em 380/460 nm using a Multifunction Microplate Reader (Synergy 4, Biotek). All measurements were carried out in duplicate. […] For the calculations, the average measurements from reactions containing only vehicle and substrate, without enzyme, were used as a blank and were subtracted from the rest of the measurements. Percent inhibition was calculated using the average measurements from reactions containing vehicle, enzyme, and substrate as the maximum of enzymatic activity. Measurements were performed as a single point.

mouse plasma FAPα = molecular target: T2, mouse plasma FAPα (Mus musculus, UniProt P97321); assay: FAPα enzymatic activity in mouse plasma; settings: C57BL/6 mouse plasma; PRXS-AMC substrate; read-out: mouse plasma FAPα (PRXS-AMC) (exo IC50)
T2 construct: from tissue; host or cells: mouse plasma (C57BL/6, EDTA)
T2 sequence (P97321 24-761 limits assumed): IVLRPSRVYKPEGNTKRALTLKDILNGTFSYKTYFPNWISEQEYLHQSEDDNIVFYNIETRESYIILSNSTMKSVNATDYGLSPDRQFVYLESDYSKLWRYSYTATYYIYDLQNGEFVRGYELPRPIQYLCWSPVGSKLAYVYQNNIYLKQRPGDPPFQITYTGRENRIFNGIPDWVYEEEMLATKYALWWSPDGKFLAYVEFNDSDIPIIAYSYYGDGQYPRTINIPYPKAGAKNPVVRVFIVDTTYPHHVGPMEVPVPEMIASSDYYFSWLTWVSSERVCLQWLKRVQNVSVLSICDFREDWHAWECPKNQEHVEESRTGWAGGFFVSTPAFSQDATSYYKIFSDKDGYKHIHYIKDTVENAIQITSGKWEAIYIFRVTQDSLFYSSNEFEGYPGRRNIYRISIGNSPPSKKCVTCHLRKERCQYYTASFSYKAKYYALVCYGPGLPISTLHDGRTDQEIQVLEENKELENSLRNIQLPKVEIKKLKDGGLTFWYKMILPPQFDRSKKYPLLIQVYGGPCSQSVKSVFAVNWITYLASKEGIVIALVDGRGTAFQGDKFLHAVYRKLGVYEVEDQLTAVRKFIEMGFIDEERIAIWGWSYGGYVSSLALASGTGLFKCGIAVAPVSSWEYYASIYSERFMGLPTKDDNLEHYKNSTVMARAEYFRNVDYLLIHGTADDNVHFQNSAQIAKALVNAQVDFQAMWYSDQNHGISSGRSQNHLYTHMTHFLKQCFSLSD
Protocol: The blood sample was immediately centrifuged at approximately 9000 g at 4° C. for 5 minutes. Plasma was separated and stored at −80° C. in aliquots of 300 μL. […] The assay was performed for 1 hour at 37° C. protected from light. 7-Amino-4-Methylcoumarin (AMC) release was detected measuring fluorescence at an excitation wavelength of 380 nm and an emission wavelength of 460 nm using a Multifunction Microplate Reader (Synergy 4, Biotek). All measurements were carried out at least as a single point.

[2] = molecular target: T3, recombinant human DPPIV (rhDPPIV) (Homo sapiens, UniProt P27487); assay: DPPIV enzymatic activity assay; settings: H-Gly-Pro-pNA substrate
T3 construct: purchased R&S system (so in the source)

[3] = molecular target: T4, recombinant human FAPα (rhFAPα) (Homo sapiens, UniProt Q12884); assay: FAPα enzymatic exopeptidase (dipeptidase) activity assay; settings: for inhibition at 1 µM: 1 μM test compound, Z-Gly-Pro-AMC substrate, read-out: rhFAPα (% exo inh @ 1 μM); for IC50: exopeptidase, read-out: rhFAPα (exo IC50)
T4 construct: purchased R&S system (so in the source)
T4 sequence (Q12884 1-760): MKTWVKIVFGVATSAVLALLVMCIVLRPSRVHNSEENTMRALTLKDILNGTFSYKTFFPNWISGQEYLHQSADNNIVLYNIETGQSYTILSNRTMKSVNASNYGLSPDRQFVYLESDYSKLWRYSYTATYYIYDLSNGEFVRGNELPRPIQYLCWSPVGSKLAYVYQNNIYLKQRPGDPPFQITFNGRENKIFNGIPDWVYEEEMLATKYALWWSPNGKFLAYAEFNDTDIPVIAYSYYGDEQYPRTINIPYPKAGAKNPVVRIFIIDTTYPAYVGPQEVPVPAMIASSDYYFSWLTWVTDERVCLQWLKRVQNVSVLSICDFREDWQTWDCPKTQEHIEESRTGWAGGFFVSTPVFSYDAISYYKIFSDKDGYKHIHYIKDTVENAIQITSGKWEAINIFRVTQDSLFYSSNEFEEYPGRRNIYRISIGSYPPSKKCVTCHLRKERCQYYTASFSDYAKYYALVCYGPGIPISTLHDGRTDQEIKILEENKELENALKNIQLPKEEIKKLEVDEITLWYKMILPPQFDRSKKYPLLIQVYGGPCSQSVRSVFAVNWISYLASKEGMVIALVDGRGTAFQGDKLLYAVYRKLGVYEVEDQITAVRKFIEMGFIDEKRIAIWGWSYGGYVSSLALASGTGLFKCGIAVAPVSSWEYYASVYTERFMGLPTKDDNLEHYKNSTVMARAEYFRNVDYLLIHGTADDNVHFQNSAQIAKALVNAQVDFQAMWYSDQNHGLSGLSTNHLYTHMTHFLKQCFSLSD

mouse plasma DPPIV = molecular target: T5, mouse plasma DPPIV (Mus musculus, UniProt P28843); assay: DPPIV enzymatic activity in mouse plasma; settings: C57BL/6 mouse plasma; H-Gly-Pro-AMC substrate
T5 construct: from tissue; host or cells: mouse plasma (C57BL/6, EDTA)
Protocol: Approximately 500 μL of whole blood from one C57BL/6 mouse was harvested into BD Microtainer® tubes (K2) EDTA (#365974, Becton Dickinson and Co.) via terminal cardiac puncture. The blood sample was immediately centrifuged at approximately 9000 g at 4° C. for 5 minutes. Plasma was separated and stored at −80° C. in aliquots of 300 μL. To assay baseline DPPIV enzymatic exopeptidase activity, 5 μL of thawed, mouse plasma was diluted (1:5) in buffer (100 mM Tris-HCl, 400 mM NaCl, 50 mM salicylic acid, 1 mM EDTA, pH 7.5) and mixed with 35 µL of the same buffer before being pre-incubated with different concentrations of 10 μL of test compounds or DMSO vehicle for 15 minutes at 37° C. in 96-well black plates (Nunc, #237108). After pre-incubation, 50 μL of 200 μM dipeptide substrate H-Gly-Pro-AMC (Bachem, #L-1225) was added to the mixture. The assay was performed for 1 hour at 37° C. 7-Amino-4-Methylcoumarin (AMC) release was detected measuring fluorescence at an excitation wavelength of 360 nm and an emission wavelength of 460 nm using a Multifunction Microplate Reader (Synergy 4, Biotek). All measurements were carried out at least in duplicate.

[4] = molecular target: T6, recombinant human PREP (rhPREP) (Homo sapiens, UniProt P48147); assay: PREP enzymatic activity assay; settings: Z-Gly-Pro-AMC substrate
T6 sequence (P48147 1-710): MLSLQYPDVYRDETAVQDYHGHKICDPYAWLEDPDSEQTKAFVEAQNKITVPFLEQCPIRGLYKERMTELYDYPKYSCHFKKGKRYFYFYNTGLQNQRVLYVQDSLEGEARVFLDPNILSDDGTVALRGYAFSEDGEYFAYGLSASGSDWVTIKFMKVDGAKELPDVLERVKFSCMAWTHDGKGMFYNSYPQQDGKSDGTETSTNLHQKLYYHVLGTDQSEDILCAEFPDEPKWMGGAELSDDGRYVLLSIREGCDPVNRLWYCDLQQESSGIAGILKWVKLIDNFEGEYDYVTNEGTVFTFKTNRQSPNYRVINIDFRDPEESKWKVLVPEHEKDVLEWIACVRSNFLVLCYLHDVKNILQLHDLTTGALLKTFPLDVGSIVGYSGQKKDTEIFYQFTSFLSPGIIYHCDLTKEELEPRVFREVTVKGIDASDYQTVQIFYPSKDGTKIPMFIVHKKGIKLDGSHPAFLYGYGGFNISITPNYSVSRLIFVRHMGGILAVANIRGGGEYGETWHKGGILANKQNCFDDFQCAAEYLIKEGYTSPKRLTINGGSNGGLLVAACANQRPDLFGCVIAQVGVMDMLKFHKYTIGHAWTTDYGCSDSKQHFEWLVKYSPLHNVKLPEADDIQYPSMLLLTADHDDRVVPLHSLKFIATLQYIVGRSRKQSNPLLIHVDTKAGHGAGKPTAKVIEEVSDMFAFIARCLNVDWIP
Protocol: (§1) 7-Amino-4-Methylcoumarin (AMC) release was detected by measuring fluorescence at Ex/Em 380/460 nm using a Multifunction Microplate Reader (Synergy 4, Biotek). All measurements were carried out in triplicate.

[5] = molecular target: T7, recombinant human DPP9 (rhDPP9) (Homo sapiens, UniProt Q86TI2); assay: DPP9 enzymatic activity assay; settings: H-Gly-Pro-AMC substrate
T7 construct: purchased R&S system (so in the source)
Protocol: as §1

T5 sequence (P28843 37-760 limits assumed): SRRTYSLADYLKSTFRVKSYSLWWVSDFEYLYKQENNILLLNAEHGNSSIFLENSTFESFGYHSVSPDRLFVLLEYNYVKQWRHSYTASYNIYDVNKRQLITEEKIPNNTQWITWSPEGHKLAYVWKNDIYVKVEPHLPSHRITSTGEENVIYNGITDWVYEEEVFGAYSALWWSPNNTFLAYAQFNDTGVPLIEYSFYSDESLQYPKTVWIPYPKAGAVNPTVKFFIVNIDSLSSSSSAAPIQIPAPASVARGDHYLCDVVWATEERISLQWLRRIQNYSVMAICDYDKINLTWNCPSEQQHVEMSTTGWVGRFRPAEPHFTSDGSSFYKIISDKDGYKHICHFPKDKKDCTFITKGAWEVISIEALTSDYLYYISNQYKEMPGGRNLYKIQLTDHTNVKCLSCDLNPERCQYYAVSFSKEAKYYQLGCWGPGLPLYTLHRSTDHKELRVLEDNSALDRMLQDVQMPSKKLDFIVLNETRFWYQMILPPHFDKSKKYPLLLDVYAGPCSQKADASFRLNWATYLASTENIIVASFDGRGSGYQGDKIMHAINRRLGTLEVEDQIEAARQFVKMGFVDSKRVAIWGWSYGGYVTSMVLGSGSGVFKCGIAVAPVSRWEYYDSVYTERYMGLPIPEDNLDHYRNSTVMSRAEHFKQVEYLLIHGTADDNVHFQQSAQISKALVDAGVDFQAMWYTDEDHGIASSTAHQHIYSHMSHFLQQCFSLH
T7 sequence (Q86TI2 whole entry): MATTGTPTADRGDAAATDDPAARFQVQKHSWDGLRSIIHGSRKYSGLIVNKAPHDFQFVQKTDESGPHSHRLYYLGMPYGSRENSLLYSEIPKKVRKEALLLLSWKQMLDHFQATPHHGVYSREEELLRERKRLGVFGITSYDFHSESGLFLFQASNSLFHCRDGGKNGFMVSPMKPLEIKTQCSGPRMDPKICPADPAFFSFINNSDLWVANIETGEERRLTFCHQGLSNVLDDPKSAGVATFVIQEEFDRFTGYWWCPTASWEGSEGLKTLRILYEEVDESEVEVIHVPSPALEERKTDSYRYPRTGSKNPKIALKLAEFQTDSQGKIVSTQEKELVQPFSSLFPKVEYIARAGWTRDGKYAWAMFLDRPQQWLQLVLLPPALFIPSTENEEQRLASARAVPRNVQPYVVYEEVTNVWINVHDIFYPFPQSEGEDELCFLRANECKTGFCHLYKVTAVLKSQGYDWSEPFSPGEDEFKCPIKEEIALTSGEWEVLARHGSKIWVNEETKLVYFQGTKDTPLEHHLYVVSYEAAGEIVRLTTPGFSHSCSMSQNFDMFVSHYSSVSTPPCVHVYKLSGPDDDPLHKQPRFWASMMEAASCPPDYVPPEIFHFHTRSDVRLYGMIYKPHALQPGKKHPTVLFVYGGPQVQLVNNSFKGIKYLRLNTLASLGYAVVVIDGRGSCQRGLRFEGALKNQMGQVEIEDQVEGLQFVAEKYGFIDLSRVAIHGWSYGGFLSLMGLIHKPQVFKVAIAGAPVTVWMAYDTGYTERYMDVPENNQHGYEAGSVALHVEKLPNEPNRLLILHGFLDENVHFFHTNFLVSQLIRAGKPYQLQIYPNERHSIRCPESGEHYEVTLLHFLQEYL
T3 sequence (P27487 whole entry): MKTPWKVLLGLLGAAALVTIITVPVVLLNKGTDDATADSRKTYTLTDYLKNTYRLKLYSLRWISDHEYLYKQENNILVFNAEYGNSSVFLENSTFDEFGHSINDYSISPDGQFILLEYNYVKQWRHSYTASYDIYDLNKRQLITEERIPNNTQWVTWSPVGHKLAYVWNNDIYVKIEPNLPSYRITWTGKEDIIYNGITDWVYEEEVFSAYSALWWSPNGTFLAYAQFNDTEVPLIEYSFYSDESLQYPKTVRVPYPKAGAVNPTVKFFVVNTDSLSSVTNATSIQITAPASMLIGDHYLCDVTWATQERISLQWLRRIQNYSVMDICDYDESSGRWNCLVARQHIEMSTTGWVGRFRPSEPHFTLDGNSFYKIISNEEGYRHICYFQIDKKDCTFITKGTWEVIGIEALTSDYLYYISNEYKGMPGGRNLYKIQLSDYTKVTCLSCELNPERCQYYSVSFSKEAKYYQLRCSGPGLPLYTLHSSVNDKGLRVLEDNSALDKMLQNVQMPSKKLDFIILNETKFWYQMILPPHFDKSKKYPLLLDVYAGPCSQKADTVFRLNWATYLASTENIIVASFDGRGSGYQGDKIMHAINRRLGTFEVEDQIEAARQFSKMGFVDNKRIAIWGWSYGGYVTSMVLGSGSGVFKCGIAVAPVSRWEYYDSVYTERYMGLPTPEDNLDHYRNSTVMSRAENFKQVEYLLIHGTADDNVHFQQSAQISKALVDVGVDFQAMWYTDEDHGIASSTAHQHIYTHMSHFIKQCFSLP

inhibition at 1 µM [1] [%]	IC50 (mouse plasma FAPα) [µM]	IC50 [2] [µM]	inhibition at 1 µM [3] [%]	IC50 ([3]; Table 2, Z-Gly-Pro-AMC) [µM]	IC50 ([3]; Table 3) [µM]	IC50 (mouse plasma DPPIV) [µM]	IC50 [4] [µM]	IC50 [5] [µM]	Structure (SMILES)
< 25									N#C[C@@H]1CC(F)(F)CN1C(=O)CNC(=O)c1ncnc2c1CCC2 [Example 5, (S)—N-(2-(2-cyano-4,4-difluoropyrrolidin-1-yl)-2-oxoethyl)-6,7-dihydro-5H-cyclopenta[d]pyrimidine-4-carboxamide]
	< 1	1 to 10	> 50	< 1	< 1	1 to 10	> 10	> 10	N#C[C@@H]1CC(F)(F)CN1C(=O)CNC(=O)c1ccncc1-c1ccc(Cl)c(F)c1 [Compound 111, (S)-3-(4-chloro-3-fluorophenyl)-N-(2-(2-cyano-4,4-difluoropyrrolidin-1-yl)-2-oxoethyl)isonicotinamide]
25 to 50									N#Cc1ccc(C(=O)NCC(=O)N2CC(F)(F)C[C@H]2C#N)cc1C(F)(F)F [Compound 12, (S)-4-cyano-N-(2-(2-cyano-4,4-difluoropyrrolidin-1-yl)-2-oxoethyl)-3-(trifluoromethyl)benzamide]
25 to 50									N#C[C@@H]1CC(F)(F)CN1C(=O)CNC(=O)c1ccc(C(N)=O)cc1 [Compound 11, (S)—N-(2-(2-cyano-4,4-difluoropyrrolidin-1-yl)-2-oxoethyl)terephthalamide]
25 to 50									N#C[C@@H]1CC(F)(F)CN1C(=O)CNC(=O)c1cn(-c2ccccc2)c(=O)c2ccccc12 [Example 2, (S)—N-(2-(2-cyano-4,4-difluoropyrrolidin-1-yl)-2-oxoethyl)-1-oxo-2-phenyl-1,2-dihydroisoquinoline-4-carboxamide]
< 25									N#C[C@@H]1CC(F)(F)CN1C(=O)CNC(=O)N1Cc2ccccc2C1 [Example 8, (S)—N-(2-(2-cyano-4,4-difluoropyrrolidin-1-yl)-2-oxoethyl) isoindoline-2-carboxamide]
		> 10	> 50	< 1	< 1	> 10	1 to 10	1 to 10	CC(c1ccccc1)c1cnccc1C(=O)NCC(=O)N1CC(F)(F)C[C@H]1C#N (stereo partly drawn) [Compound 123, N-(2-((S)-2-cyano-4,4-difluoropyrrolidin-1-yl)-2-oxoethyl)-3-(1-phenylethyl)isonicotinamide]
	< 1	> 10	> 50	< 1	< 1	> 10	1 to 10	1 to 10	N#C[C@@H]1CC(F)(F)CN1C(=O)CNC(=O)c1c[nH]c(=O)cc1Cc1ccccc1 [Compound 121, (S)-4-benzyl-N-(2-(2-cyano-4,4-difluoropyrrolidin-1-yl)-2-oxoethyl)-6-oxo-1,6-dihydropyridine-3-carboxamide]
